Measured values reported in article PMC11864979, “First-in-class ultralong-target-residence-time p38α inhibitors as a mitosis-targeted therapy for colorectal cancer” (Nature Cancer, 2025).
Like-named read-outs stand apart in the source and are kept apart here.

How the values were obtained:
Experiment in all cases: selectivity profiling in a panel of 340 wild-type kinases (Reaction Biology Europe)
Assay type in all cases: binding
340 wild-type kinases [1] = molecular target: T1, 340 wild-type kinases (Homo sapiens, UniProt P08581)
T1 construct: purchased Reaction Biology Europe

340 wild-type kinases [2] = molecular target: T2, 340 wild-type kinases (Homo sapiens, UniProt P37173)
T2 construct: purchased Reaction Biology Europe

340 wild-type kinases [3] = molecular target: T3, 340 wild-type kinases (Homo sapiens, UniProt P53779)
T3 construct: purchased Reaction Biology Europe

340 wild-type kinases [4] = molecular target: T4, 340 wild-type kinases (Homo sapiens, UniProt P54764)
T4 construct: purchased Reaction Biology Europe

340 wild-type kinases [5] = molecular target: T5, 340 wild-type kinases (Homo sapiens, UniProt Q7KZI7)
T5 construct: purchased Reaction Biology Europe

340 wild-type kinases [6] = molecular target: T6, 340 wild-type kinases (Homo sapiens, UniProt Q92630)
T6 construct: purchased Reaction Biology Europe
T6 sequence (Q92630 1-601): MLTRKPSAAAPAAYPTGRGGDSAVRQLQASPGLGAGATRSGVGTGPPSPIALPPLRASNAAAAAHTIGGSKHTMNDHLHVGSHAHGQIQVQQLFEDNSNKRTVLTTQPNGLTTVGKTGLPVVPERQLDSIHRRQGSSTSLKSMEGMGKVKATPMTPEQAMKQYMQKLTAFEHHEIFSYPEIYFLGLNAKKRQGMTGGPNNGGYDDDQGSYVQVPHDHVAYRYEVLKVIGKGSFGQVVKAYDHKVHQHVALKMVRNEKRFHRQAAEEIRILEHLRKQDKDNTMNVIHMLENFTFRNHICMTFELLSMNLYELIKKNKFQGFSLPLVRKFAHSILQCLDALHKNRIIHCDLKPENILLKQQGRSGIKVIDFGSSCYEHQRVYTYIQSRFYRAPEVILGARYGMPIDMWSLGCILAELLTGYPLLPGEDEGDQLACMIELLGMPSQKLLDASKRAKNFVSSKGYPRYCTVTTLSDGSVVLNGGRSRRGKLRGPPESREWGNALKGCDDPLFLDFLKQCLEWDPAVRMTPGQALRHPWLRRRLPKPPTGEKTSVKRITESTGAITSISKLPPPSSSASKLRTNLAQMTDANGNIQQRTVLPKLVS

340 wild-type kinases [7] = molecular target: T7, 340 wild-type kinases (Homo sapiens, UniProt Q96RG2)
T7 construct: purchased Reaction Biology Europe

340 wild-type kinases [8] = molecular target: T8, 340 wild-type kinases (Homo sapiens, UniProt Q96SB4)
T8 construct: purchased Reaction Biology Europe

340 wild-type kinases [9] = molecular target: T9, 340 wild-type kinases (Homo sapiens, UniProt Q9UL54)
T9 construct: purchased Reaction Biology Europe
T9 sequence (Q9UL54 1-1235): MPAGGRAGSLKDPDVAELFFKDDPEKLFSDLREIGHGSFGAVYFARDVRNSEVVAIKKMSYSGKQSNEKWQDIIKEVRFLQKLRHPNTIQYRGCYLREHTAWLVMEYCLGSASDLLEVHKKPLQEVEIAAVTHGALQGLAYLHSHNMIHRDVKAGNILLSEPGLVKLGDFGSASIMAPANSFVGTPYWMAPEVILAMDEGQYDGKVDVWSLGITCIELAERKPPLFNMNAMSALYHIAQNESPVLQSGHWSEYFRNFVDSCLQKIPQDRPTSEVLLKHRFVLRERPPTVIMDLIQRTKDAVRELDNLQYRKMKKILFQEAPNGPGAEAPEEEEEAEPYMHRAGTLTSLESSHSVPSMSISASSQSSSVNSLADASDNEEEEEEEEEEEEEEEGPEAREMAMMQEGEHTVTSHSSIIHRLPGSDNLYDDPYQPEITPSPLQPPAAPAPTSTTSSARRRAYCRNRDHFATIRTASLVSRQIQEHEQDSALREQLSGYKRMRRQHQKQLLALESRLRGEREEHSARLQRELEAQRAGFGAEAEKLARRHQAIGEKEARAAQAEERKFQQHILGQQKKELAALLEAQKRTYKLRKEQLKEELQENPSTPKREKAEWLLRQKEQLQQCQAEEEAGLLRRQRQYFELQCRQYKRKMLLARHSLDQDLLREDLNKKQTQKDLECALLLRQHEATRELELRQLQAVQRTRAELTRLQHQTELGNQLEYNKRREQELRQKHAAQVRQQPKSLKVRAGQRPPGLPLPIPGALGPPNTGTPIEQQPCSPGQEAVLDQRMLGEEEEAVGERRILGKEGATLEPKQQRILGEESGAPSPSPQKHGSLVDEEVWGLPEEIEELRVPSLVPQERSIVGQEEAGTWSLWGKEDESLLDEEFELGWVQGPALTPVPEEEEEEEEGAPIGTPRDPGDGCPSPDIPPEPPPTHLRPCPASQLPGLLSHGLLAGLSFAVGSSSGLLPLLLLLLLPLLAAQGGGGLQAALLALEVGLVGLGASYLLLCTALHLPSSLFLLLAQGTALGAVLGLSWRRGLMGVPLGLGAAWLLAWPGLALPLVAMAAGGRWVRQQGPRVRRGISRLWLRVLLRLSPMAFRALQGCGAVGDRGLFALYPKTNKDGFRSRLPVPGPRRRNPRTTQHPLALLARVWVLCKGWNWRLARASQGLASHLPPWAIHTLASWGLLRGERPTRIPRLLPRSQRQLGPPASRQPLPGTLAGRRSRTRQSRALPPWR

T1 sequence (P08581 25-1390): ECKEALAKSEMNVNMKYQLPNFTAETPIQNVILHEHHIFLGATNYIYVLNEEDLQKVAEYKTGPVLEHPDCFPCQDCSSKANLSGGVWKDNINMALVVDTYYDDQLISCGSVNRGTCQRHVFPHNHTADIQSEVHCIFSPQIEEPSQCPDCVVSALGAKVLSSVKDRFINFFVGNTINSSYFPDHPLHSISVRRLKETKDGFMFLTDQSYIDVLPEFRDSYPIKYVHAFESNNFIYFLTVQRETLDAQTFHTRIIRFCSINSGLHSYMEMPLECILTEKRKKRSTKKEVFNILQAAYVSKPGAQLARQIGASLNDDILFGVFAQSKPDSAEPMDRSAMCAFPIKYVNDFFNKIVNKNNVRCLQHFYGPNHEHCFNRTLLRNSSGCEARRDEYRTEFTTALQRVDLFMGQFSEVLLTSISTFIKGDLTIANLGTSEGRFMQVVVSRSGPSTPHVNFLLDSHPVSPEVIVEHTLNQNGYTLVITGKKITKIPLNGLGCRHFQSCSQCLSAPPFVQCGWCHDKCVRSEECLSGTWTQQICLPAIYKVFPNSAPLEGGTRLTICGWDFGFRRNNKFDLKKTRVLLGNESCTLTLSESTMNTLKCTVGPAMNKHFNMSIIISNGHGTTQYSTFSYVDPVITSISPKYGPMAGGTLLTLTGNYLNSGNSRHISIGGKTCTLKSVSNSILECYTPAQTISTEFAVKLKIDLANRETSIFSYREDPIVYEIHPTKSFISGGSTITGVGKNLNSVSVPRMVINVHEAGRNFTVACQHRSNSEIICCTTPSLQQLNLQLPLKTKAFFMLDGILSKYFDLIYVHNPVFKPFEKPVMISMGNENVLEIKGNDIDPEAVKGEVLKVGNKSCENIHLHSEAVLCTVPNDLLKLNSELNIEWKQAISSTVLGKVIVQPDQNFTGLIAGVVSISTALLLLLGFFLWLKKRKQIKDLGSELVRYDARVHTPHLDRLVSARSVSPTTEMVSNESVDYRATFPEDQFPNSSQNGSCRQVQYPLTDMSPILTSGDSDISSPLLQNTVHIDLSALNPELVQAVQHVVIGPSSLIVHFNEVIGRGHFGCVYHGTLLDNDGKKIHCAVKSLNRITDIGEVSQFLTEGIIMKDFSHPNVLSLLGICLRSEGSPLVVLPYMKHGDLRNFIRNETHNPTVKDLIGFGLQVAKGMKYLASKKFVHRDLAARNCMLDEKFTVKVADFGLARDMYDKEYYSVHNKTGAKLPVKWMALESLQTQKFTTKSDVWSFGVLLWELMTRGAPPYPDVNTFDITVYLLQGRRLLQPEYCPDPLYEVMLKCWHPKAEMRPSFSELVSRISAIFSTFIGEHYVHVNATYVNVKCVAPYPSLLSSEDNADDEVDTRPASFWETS
T7 sequence (Q96RG2 whole entry): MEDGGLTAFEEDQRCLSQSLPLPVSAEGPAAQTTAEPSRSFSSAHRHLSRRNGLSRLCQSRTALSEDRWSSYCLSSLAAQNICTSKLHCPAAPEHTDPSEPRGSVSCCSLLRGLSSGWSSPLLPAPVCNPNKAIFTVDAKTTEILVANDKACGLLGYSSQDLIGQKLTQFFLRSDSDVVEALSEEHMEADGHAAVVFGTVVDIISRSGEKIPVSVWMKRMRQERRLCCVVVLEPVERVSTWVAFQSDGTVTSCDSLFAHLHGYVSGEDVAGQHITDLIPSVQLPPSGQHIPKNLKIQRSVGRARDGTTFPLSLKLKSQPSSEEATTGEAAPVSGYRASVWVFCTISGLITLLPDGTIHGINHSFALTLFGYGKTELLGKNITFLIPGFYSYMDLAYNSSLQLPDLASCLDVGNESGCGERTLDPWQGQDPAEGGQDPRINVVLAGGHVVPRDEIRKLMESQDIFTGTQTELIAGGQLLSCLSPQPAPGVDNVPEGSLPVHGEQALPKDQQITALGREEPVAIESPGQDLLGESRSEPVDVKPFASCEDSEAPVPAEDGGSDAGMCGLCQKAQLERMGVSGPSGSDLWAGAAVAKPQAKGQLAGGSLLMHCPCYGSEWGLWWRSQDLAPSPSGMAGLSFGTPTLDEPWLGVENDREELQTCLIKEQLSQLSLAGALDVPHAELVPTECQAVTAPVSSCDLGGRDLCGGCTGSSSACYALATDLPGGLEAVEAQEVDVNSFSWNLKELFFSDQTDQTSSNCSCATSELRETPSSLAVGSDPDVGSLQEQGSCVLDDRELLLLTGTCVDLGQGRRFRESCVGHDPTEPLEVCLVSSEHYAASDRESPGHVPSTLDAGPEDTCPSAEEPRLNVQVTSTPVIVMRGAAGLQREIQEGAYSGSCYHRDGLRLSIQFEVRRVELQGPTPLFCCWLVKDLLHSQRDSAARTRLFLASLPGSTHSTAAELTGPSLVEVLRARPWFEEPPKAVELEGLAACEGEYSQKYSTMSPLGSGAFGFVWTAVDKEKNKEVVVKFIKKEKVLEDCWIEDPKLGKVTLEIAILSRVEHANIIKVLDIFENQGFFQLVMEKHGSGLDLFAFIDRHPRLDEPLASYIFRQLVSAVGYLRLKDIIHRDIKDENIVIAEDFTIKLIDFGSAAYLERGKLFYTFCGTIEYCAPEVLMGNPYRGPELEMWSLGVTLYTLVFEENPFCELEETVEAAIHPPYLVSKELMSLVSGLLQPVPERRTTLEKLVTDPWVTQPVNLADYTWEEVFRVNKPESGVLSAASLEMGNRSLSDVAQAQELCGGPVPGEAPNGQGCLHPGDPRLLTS
T2 sequence (P37173 23-567): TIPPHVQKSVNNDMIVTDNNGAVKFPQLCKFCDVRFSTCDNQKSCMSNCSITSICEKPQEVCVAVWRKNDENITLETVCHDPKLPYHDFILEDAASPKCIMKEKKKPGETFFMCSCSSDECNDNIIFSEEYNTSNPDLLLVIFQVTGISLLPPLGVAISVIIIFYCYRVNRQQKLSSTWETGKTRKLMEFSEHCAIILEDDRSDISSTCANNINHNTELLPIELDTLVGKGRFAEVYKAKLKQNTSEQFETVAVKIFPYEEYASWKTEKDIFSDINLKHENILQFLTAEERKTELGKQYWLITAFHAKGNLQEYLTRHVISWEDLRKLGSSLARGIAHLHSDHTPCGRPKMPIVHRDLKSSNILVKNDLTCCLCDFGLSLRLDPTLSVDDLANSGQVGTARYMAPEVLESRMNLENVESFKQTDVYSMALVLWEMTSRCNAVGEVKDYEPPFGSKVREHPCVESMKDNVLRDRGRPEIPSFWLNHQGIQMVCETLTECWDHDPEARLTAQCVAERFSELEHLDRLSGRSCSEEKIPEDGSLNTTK
T4 sequence (P54764 20-986): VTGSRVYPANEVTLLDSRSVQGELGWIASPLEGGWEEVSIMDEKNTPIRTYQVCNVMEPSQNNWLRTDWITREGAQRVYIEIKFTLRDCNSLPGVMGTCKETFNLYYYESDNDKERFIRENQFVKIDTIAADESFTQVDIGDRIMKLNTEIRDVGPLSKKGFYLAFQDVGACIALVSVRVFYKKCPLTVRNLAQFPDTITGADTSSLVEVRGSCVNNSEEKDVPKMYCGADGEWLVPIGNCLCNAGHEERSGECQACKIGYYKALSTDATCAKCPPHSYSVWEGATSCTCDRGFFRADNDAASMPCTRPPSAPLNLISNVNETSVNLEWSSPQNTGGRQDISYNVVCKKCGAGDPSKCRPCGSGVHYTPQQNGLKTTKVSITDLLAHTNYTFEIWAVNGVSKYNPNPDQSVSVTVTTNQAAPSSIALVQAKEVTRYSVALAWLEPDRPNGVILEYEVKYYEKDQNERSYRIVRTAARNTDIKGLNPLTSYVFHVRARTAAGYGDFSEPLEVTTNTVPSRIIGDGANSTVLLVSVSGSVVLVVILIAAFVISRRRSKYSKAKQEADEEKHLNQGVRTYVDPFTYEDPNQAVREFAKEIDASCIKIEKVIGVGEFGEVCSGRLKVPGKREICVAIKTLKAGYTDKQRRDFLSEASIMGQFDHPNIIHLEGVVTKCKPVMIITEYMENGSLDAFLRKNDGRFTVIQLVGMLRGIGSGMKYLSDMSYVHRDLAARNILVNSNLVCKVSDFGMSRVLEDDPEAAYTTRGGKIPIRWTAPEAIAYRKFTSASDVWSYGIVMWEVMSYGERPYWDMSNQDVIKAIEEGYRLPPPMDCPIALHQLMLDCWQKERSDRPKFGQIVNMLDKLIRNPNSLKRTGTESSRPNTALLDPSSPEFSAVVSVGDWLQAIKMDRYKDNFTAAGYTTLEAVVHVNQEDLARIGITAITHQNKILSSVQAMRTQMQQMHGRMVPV
T3 sequence (P53779 whole entry): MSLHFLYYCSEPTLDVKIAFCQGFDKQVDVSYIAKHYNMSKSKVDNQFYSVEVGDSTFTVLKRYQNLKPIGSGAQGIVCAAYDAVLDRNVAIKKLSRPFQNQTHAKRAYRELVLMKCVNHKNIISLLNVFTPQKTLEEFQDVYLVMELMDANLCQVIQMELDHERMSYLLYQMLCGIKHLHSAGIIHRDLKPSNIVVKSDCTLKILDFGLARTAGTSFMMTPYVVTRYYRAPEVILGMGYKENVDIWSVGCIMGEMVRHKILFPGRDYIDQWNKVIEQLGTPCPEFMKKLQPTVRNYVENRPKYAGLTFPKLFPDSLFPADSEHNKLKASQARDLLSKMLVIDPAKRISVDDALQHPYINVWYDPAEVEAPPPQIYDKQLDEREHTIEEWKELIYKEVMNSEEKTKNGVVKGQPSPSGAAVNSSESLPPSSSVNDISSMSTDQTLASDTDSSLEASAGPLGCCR

Question: What does the source list for CNC(=O)c1ccc2c(c1)C(=O)c1ccc(Nc3ccc(F)c(NC(=O)C4CC4)c3)cc1CC2 [Compound 2015]?
Answer: remaining activity at 0.2 µM (340 wild-type kinases [1]; 0.2 µM 2015, read-out: MET residual activity): 96.7%; remaining activity at 1 µM (340 wild-type kinases [1]; 1 µM 2015, read-out: MET residual activity): 93.5%; remaining activity at 0.2 µM (340 wild-type kinases [1]; MET, 0.2 µM, read-out: residual activity): 96.7%; remaining activity at 1 µM (340 wild-type kinases [1]; MET, 1 µM, read-out: residual activity): 93.5%; remaining activity at 0.2 µM (340 wild-type kinases [2]; 0.2 µM 2015, read-out: TGFBR2 residual activity): 78.4%; remaining activity at 1 µM (340 wild-type kinases [2]; 1 µM 2015, read-out: TGFBR2 residual activity): 76.8%; remaining activity at 0.2 µM (340 wild-type kinases [2]; TGFBR2, 0.2 µM, read-out: residual activity): 78.3%; remaining activity at 1 µM (340 wild-type kinases [2]; TGFBR2, 1 µM, read-out: residual activity): 76.8%; remaining activity at 0.2 µM (340 wild-type kinases [3]; 0.2 µM 2015, read-out: JNK3 residual activity): 90.9%; remaining activity at 1 µM (340 wild-type kinases [3]; 1 µM 2015, read-out: JNK3 residual activity): 100%; remaining activity at 0.2 µM (340 wild-type kinases [3]; JNK3, 0.2 µM, read-out: residual activity): 90.9%; remaining activity at 1 µM (340 wild-type kinases [3]; JNK3, 1 µM, read-out: residual activity): 100%; remaining activity at 0.2 µM (340 wild-type kinases [4]; 0.2 µM 2015, read-out: EPHA4 residual activity): 95.1%; remaining activity at 1 µM (340 wild-type kinases [4]; 1 µM 2015, read-out: EPHA4 residual activity): 91.4%; remaining activity at 0.2 µM (340 wild-type kinases [4]; EPHA4, 0.2 µM, read-out: residual activity): 95.1%; remaining activity at 1 µM (340 wild-type kinases [4]; EPHA4, 1 µM, read-out: residual activity): 91.5%; remaining activity at 0.2 µM (340 wild-type kinases [5]; 0.2 µM 2015, read-out: MARK2 residual activity): 101%; remaining activity at 1 µM (340 wild-type kinases [5]; 1 µM 2015, read-out: MARK2 residual activity): 99.5%; remaining activity at 0.2 µM (340 wild-type kinases [5]; MARK2, 0.2 µM, read-out: residual activity): 101%; remaining activity at 1 µM (340 wild-type kinases [5]; MARK2, 1 µM, read-out: residual activity): 99.5%; remaining activity at 0.2 µM (340 wild-type kinases [6]; 0.2 µM 2015, read-out: DYRK2 residual activity): 95.7%; remaining activity at 1 µM (340 wild-type kinases [6]; 1 µM 2015, read-out: DYRK2 residual activity): 94.2%; remaining activity at 0.2 µM (340 wild-type kinases [6]; DYRK2, 0.2 µM, read-out: residual activity): 95.7%; remaining activity at 1 µM (340 wild-type kinases [6]; DYRK2, 1 µM, read-out: residual activity): 94.2%; remaining activity at 0.2 µM (340 wild-type kinases [7]; 0.2 µM 2015, read-out: PASK residual activity): 99.2%; remaining activity at 1 µM (340 wild-type kinases [7]; 1 µM 2015, read-out: PASK residual activity): 95.1%; remaining activity at 0.2 µM (340 wild-type kinases [7]; PASK, 0.2 µM, read-out: residual activity): 99.2%; remaining activity at 1 µM (340 wild-type kinases [7]; PASK, 1 µM, read-out: residual activity): 95.1%; remaining activity at 0.2 µM (340 wild-type kinases [8]; 0.2 µM 2015, read-out: SRPK1 residual activity): 108%; remaining activity at 1 µM (340 wild-type kinases [8]; 1 µM 2015, read-out: SRPK1 residual activity): 105%; remaining activity at 0.2 µM (340 wild-type kinases [8]; SRPK1, 0.2 µM, read-out: residual activity): 108%; remaining activity at 1 µM (340 wild-type kinases [8]; SRPK1, 1 µM, read-out: residual activity): 105%; remaining activity at 0.2 µM (340 wild-type kinases [9]; 0.2 µM 2015, read-out: TAOK2 residual activity): 102%; remaining activity at 1 µM (340 wild-type kinases [9]; 1 µM 2015, read-out: TAOK2 residual activity): 103%; remaining activity at 0.2 µM (340 wild-type kinases [9]; TAOK2, 0.2 µM, read-out: residual activity): 102%; remaining activity at 1 µM (340 wild-type kinases [9]; TAOK2, 1 µM, read-out: residual activity): 103%
